Entries after “also recorded” stand apart in the source; their conditions may differ. Square brackets hold non-standard residues; d marks the D form. Peptide text beside a SMILES is read from it. dPhe(F5) = N[C@H](Cc1c(F)c(F)c(F)c(F)c1F)C(=O)O; dBpa = N[C@H](Cc1ccc(C(=O)c2ccccc2)cc1)C(=O)O; dCha = N[C@H](CC1CCCCC1)C(=O)O
Experiments:
Jurkat cells [1] = assay: G2 checkpoint abrogation in bleomycin treated Jurkat cells, flow cytometry; format: cell-based, human; details: Jurkat cells; with 40 μg/ml bleomycine, 24 hours; dose with detectable G2 checkpoint abrogation
Method: Flow cytometry analysis of G2 checkpoint abrogation was performed using human leukemia derived Jurkat cell line. In brief, cultured cells were treated with various doses of peptide/peptidomimetic and 40 μg/ml bleomycine for 24 hr. The DNA of the cells was stained with propidium iodide and analyzed by flow cytometry.
The “Appearance of side effect when used alone” indicates the peptide/peptidomimetic dose that produced Jurkat cell cycle disturbance, i.e., the appearance of significant amounts of SubG1 cells (dead cells) or cells in which the DNA content of each varies more than usual. […] The “G2 abrogating dose” indicates the peptide/peptidomimetic dose with 40 μg/ml bleomycine that produced detectable G2 checkpoint abrogation activity following treatment for 24 hours. The “Appearance of side effect when used with colchicine” indicates the peptide/peptidomimetic dose with 5 μg/ml colchicine that produced Jurkat cell cycle disturbance following treatment for 24 hours.

Jurkat cells [2] = assay: M phase checkpoint abrogation / non specific toxicity in colchicine treated Jurkat cells, flow cytometry; format: cell-based; details: 0.5 μg/ml colchicine, up to 50 μM of peptide, FIG. 12
Method: Cell-cycle analysis The cell cycle status of the cells treated with bleomycin or adriamcin were analyzed by flow cytometry as described by Kawabe (1997) Nature 385:454–458. In brief, two million cells were re-suspended and incubated in 200 μul Krishan's solution (0.1% Sodium citrate, 50 μg/ml PI, 20 μg/ml RNase A and 0.5% NP-40) for 1 hr at 4° C. and analyzed by a flow cytometry, FACScan™ (Beckton Dickinson, Mountain View, Calif.) with the program CELLQuest™ (Beckton Dickinson).
Flow cytometry analysis of M phase checkpoint abrogation by the compounds was performed using human T cell leukemia Jurkat cell line treated with colchicine (5 μg/ml or 0.5 μg/ml) and various doses of peptide/peptidomimetics for 24 hr (FIG. 12). The DNA of the cells was stained and analyzed by flow cytometry as described above.
The “Appearance of side effect when used alone” indicates the peptide/peptidomimetic dose that produced Jurkat cell cycle disturbance, i.e., the appearance of significant amounts of SubG1 cells (dead cells) or cells in which the DNA content of each varies more than usual. […]
A comparison between G2 checkpoint abrogating activity and non specific toxicity (M checkpoint abrogation) by CB501 was performed. […] The DNA amount in each of the treated cells was analyzed by flow cytometry, as previously described.

MIAPaCa2 [3] = assay: Sensitization of MIAPaCa2 to bleomycin or adriamycin, % sub-G1 cells by flow cytometry; format: cell-based, human; details: bleomycine 10 μg/ml or adriamycin 1 μg/ml, 3 hours then 21 hours
Method: Cell culture A human T-cell leukemia-derived cell line, Jurkat, was cultured in RPMI 1640 (Sigma) supplemented with 10% fetal calf serum (IBL: Immuno-Biological Laboratories, Gunma, Japan) at 37° C./5% CO2. Human pancreatic cancer derived cell line, MIAPaCa2 was cultured in DMEM with 10% fetal calf serum at 37° C./5% CO2.
The G2 checkpoint abrogating activity of various compounds at different doses on human pancreatic cancer derived cell line MIAPaCa2 treated with bleomycine (Bleo) or adriamycin (ADR) was studied. Briefly, cells were incubated with the compounds and bleomycine (10 μg/ml) or adriamycin (1 μg/ml) for 3 hours. The medium was changed and incubated for an additional 21 hours. Harvested cells were stained for DNA by propium iodide and analyzed with flow cytometry as previously described. The % of the sub-G1 cell population is indicated as dead cells in FIG. 3.

HUVEC [4] = assay: G2 checkpoint abrogation with cis-platin, flow cytometry; format: cell-based, human; details: normal G1 checkpoint, at least up to 50 μM CBP501
Method: The medium was aspirated, fresh medium without these compounds was added and the cells were incubated for an additional 45 hr. The cells including floating cells were harvested using trypsin-EDTA solution, incubated with Krishan's solution and analyzed for DNA content by flow cytometry as previously described.

HUVEC [5] = assay: Growth of normal human umbilical endothelial cells (HUVEC); format: cell-based
Method: Similar studies were performed using normal human umbilical endothelial cells (HUVEC).

[6] = system: MIAPaCa2 human pancreatic carcinoma cells; assay: Colony formation analysis of MIAPaCa2 cells; format: cell-based; details: CBP501 with cisplatin or oxaliplatin (1, 3 or 9 μg/ml), three hours then 10 days
Method: Briefly, cells were plated at 300 cells/well in 6 well plates, incubated overnight, and treated with the compounds for three hours. The medium was changed and cultured for an additional 10 days. Cells were subsequently fixed with 70% methanol, stained with 0.1% crystal violet and visualized.

[7] = Mouse serum treatment analysis, residual peptide by HPLC; format: in vitro ADME; details: 1 hr at 37 degree, read-out: Residual peptide after 1 hr human serum treatment (Mouse serum treatment analysis)
[8] = Human serum treatment analysis, residual G2 checkpoint abrogating activity; format: in vitro ADME; details: d-type amino acid peptides compared with l-type peptide such as CBP413
Method: Serum analysis was performed to determine the stability of peptides in mouse and human serum. Briefly, peptides (10 mM or 2.5 mM) were incubated with freshly prepared human serum at 37 degrees for 1 hr. CBP50 (10 mM) was incubated with freshly prepared mouse serum for 1 hr at 37 degree. Jurkat cells were treated with the serum with or without peptides and bleomycin (40 μg/ml) and incubated for 24 hr. The population of G2 phase cells was determined by flow cytometry as previously described. The residual G2 checkpoint abrogating activity of serum treated peptides were determined by comparing the % G2 cells of the treated serum and the standard curve produced with medium treated peptides, bleomycin and Jurkat cells (Table 5A).

MIAPaCa2 [9] = assay: Growth inhibition analysis of MIAPaCa2 using alamar blue; format: cell-based, human
Method: The medium was changed and incubated an additional 24, 48 or 72 hour. Following incubation, 20 μl of alamarBlue 90% reagent was added to each well for another 6 hours for detection of cell viability by fluorescent intensity. Fluorescent intensity was measured using a Spectrafluor Plus plate reader with exitation 530 nm and emission 590 nm. The IC50 was calculated (Table 6).

[10] = system: MIAPaCa2 human pancreatic carcinoma cells; assay: MIAPaCa2 human pancreatic carcinoma subcutaneous tumor in scid mice; format: in vivo, mouse
Method: To study in vivo efficacy of the compounds, MIAPaCa2 human pancreatic carcinoma cells were implanted subcutaneously in scid mice. The treatment was initiated when the size of the primary tumor became 0.1 cm3 (Day0) or larger, e.g., 7 or 8 mm in diameter. CDDP (3 mg/kg) and CBP 501 (10 or 40 mg/kg) were intra-peritoneally administered alone or in combination. Tumor sizes were measured using calipers three times a week, and volumes were calculated using the formula: weight(mg)=[width (mm)2×length (mm)]/2. Mean tumor sizes for each treatment group are plotted (n=4) against the days after the start of treatment (FIG. 10).

SMILES: N=C(N)NCCC[C@@H](NC(=O)[C@@H](CCCNC(=N)N)NC(=O)[C@@H](CCC(N)=O)NC(=O)[C@@H](CCCNC(=N)N)NC(=O)[C@@H](CCCNC(=N)N)NC(=O)[C@@H](CCCNC(=N)N)NC(=O)[C@@H](CC1CCCCC1)NC(=O)[C@@H](Cc1c(F)c(F)c(F)c(F)c1F)NC(=O)[C@@H](CO)NC(=O)[C@@H](Cc1c[nH]c2ccccc12)NC(=O)[C@@H](CO)NC(=O)[C@H](N)Cc1ccc(C(=O)c2ccccc2)cc1)C(=O)O [CBP501, (d-Bpa)(d-Ser)(d-Trp)(d-Ser)(d-Phe-2,3,4,5,6-F)(d-Cha)(d-Arg)(d-Arg)(d-Arg)(d-Gln)(d-Arg)(d-Arg)] (H-[dBpa][dS][dW][dS][dPhe(F5)][dCha][dR][dR][dR][dQ][dR][dR]-OH; N-terminus and C-terminus assumed)
- G2 abrogating dose (Jurkat cells [1]): ≧0.39 μM
- Non specific toxicity (M checkpoint abrogation) (in words) (Jurkat cells [2]): absent; also recorded: does not affect M phase cell cycle arrest and/or non specific toxicity induced by colchicine
- Sensitization of MIAPaCa2 cells to bleomycin and adriamycin (% sub-G1, in words) (MIAPaCa2 [3]): sensitized MIAPaCa2 cells to both bleomycin and adriamycin in a dose dependent manner
- Sensitization of HUVEC cells to cisplatin (in words) (HUVEC [4]): not sensitized
- Effect on growth of HUVEC cells, peptide alone (in words) (HUVEC [5]): does not affect the growth of HUVEC cells
- Effect on cyto-toxic activity of cisplatin and oxaliplatin, colony formation (in words) [6]: enhanced the cyto-toxic activity of both cisplatin and oxaliplatin
- remaining at 1 h, 10 mM [7]: > 90%
- Stability in serum (in words) [8]: more stable in serum
- Cell growth inhibition alone (in words) (MIAPaCa2 [9]; compared with cisplatin): inhibits cell growth better than cisplatin in molar dose
- Cell growth suppression combined with 10 μM of cisplatin (in words) (MIAPaCa2 [9]; with 10 μM cisplatin): suppressed cell growth at a much lower dose
- Solubility in water (in words) (Solubility in water): soluble in water
- Tumor growth, CBP501 treatment alone (in words) ([10]; CBP501 10 or 40 mg/kg intra-peritoneal): suppresses the growth of human pancreatic cancer cell in vivo
- Anti-tumor activity of cisplatin in combination (in words) ([10]; CDDP 3 mg/kg with CBP501 10 or 40 mg/kg intra-peritoneal): increased the anti-tumor activity of cisplatin

From patent publication US6995135B2, “Peptides and peptidomimetics having anti-proliferative activity and/or that augment nucleic acid damaging agents or treatments” (priority 2002, dated 2006)
